Source: patent publication EP4696306A1, “ADENOSINE TRIPHOSPHATE SECRETION INHIBITOR, HEPATIC STELLATE CELL ACTIVATION INHIBITOR, HEPATIC STELLATE CELL DEACTIVATOR, HEPATIC FIBROSIS THERAPEUTIC AGENT, NON-ALCOHOLIC STEATOHEPATITIS THERAPEUTIC AGENT, PSORIASIS THERAPEUTIC AGENT, AND USE OF COMPOUND FOR PRODUCING ADENOSINE TRIPHOSPHATE …” (KURUME UNIVERSITY, priority 2023, dated 2024)

What was measured:
MCD diet-induced NASH = details: administration of clodronate; Non Patent Literature 4; cited from earlier work
LX-2 cells = assay: ATP secretion from LX-2 cells; type: cell-based, human
Experimental: Cells of the immortalized human hepatic stellate cell line LX-2 (manufactured by Merck) was cultured in Dulbecco's modified Eagle's medium (DMEM, 4500 mg/l Glucose, D5796, manufactured by Sigma-Aldrich) supplemented with inactivated 2% fetal bovine serum (FBS), 10 IU/ml penicillin, and 10 IU/ml streptomycin in a T25 or T75 flask at 37°C in 5% CO2.
LX-2 cells (2 × 10^6 cells per well) were seeded in a collagen-coated 6-well culture dish containing Dulbecco's modified Eagle's medium (manufactured by Sigma-Aldrich) supplemented with 10 IU/ml penicillin, […] 2% fetal bovine serum, and cultured in 5% CO2 at 37°C. After 3 days, the LX-2 cells were washed twice and preincubated in Krebs-Ringer buffer (10 mM HEPES-Tris, pH 7.4, 128 mM NaCl, 1.9 mM KCl, 1.2 mM KH2PO4, 1.3 mM MgSO4, 26 mM NaHCO3, 2.4 mM CaCl2, 10 mM glucose, 0.2% (w/v) bovine serum albumin) with or without 10 µM clodronate. The LX-2 cells were then stimulated with Krebs-Ringer buffer supplemented with ionomycin (manufactured by Cayman) regardless of whether clodronate was present or not. For the stimulation, 1 mM EGTA (manufactured by Dojindo) or 10 µM serotonin (5-HT, manufactured by Sigma-Aldrich) was used. The ATP concentration in the culture supernatant was measured in the same manner as in Example 6.

[1] = test system: human epidermal keratinocytes; assay: Imiquimod-induced ATP secretion in keratinocytes; type: cell-based; details: 18 hours incubation, imiquimod 15 minutes, N = 8
Experimental: In the same manner as in Example 1, keratinocytes were cultured at 2.5×10^4 cells/well in a 24-well plate at 37°C in 5% CO2 for 4 days. The medium was replaced with HBSS (manufactured by Gibco) supplemented with 1 µM or 10 µM imeglimin, and incubation was performed at 37°C in 5% CO2 for 18 hours. Thereafter, imiquimod was added thereto at 1 µg/ml or 0.5 µg/ml, and incubation was performed for 15 minutes, followed by collection of 200 µl of the supernatant. The supernatant was immediately treated on a heat block at 95°C for 10 minutes, and ATP in the supernatant was quantified using a ATP Assay Kit - Luminescence (manufactured by Dojindo) (N = 8).

| SMILES | NASH activity score, inflammatory cell infiltration, and hepatic fibrosis (MCD diet-induced NASH) | ATP exocytosis induced by ionomycin (LX-2 cells; 10 µM clodronate, N = 6) | ATP secretion promoted by 5-HT (LX-2 cells; 10 µM serotonin, 10 µM clodronate, N = 6) | ATP secretion from the LX-2 cells (LX-2 cells; imeglimin, concentration not given, N = 8) | ATP secretion promoted by imiquimod ([1]; 1 µM imeglimin) | ATP secretion promoted by imiquimod ([1]; 10 µM imeglimin) |
| --- | --- | --- | --- | --- | --- | --- |
| O=P(O)(O)C(Cl)(Cl)P(=O)(O)O [clodronate] | improves the NASH activity score, inflammatory cell infiltration, and hepatic fibrosis | inhibited | strongly inhibited | – | – | – |
| C[C@H]1N=C(N(C)C)N=C(N)N1 [imeglimin] | – | – | – | inhibited ATP secretion | strongly inhibited | strongly inhibited |
